Source: ChEMBL document CHEMBL1149408, “A QSAR model for in silico screening of MAO-A inhibitors. Prediction, synthesis, and biological assay of novel coumarins” (J Med Chem, 2006)

biological target: Amine oxidase [flavin-containing] A (Rattus norvegicus) (UniProt P21396); test: Inhibition of MAO-A activity
Sequence (P21396 whole entry, looked up): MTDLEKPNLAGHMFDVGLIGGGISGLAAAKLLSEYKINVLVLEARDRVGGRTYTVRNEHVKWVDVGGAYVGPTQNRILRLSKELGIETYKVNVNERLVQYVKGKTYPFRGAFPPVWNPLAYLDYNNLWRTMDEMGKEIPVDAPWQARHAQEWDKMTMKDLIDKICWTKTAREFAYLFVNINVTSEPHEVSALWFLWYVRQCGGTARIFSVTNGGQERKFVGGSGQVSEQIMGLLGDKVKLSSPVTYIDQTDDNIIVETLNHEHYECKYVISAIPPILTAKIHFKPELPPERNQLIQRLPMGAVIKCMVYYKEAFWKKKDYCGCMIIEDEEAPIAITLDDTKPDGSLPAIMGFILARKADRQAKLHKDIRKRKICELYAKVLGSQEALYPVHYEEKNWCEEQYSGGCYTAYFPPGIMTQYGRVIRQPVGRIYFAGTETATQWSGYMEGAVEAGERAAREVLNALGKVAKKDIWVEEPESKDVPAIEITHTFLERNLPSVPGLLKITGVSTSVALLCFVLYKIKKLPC

Compound | IC50 [µM]
COc1cc(OC2CCCCC2=O)c2c(C)cc(=O)oc2c1 (stereo not given) | > 200
COc1c(OC2CCCCC2=O)ccc2c(C)cc(=O)oc12 (stereo not given) | 11.1
COc1c(OCC(C)=O)ccc2cc(NC(C)=O)c(=O)oc12 | 6.43
Cc1cc(=O)oc2cc3oc4ccccc4c3cc12 | 7.24
Cc1coc2cc3oc(=O)c(NC(=O)CN)cc3cc12 | 12.3
Cc1cc(=O)oc2cc(OC3CCCCC3=O)ccc12 (stereo not given) | 43
CCN(CC)CCCOc1c2occc2cc2ccc(=O)oc12 | > 200
Cc1cc(=O)oc2cc3oc4c(c3cc12)CCCC4 | 65.2
COc1cc(OC2CCCCC2=O)cc2oc(=O)cc(C)c12 (stereo not given) | 21.4
COc1c2oc(=O)c(N)cc2cc2c(C)coc12 | 21.7
Cc1cc(=O)oc2cc(OC3CCCC3=O)ccc12 (stereo not given) | 0.04
NCCCOc1c2occc2cc2ccc(=O)oc12 | 2.51
COc1c(O)ccc2cc(N)c(=O)oc12 | > 200
Cc1cc(=O)oc2cc3oc4c(c3cc12)CCC4 | 11.9
COc1c2occc2cc2ccc(=O)oc12 [METHOXSALEN] | 85.1
